Experimental data published in patent US20160030562A1, “METHODS TO ENHANCE CANCER TREATMENT” (INTERNATIONAL BUSINESS MACHINES CORPORATION, priority 2011, published 2016).

Tested on: breast cancer
Test: Treatment of Patient A (Stage II breast cancer)
Assay type: in vivo, human
Conditions: tamoxifen alone, 20 mg a day, year 3 of 5-year treatment
Protocol: Patient A has Stage II breast cancer. Patient A is in year 3 of a 5-year treatment with tamoxifen (tamoxifen prescribed at 20 mg a day for 5 years) but no regression in patient's breast cancer is apparent. Additional treatment is desired.
Cholesterol deprivation therapy is prescribed for Patient A. Patient A prefers a vegan diet, so Patient A's diet includes no meat or animal products, no saturated fats, and monounsaturated and polyunsaturated fats in moderation. Vegetable proteins, fruits, vegetables, and grains are primary food sources. A multivitamin with vitamin D and calcium is prescribed. […] CDT is prescribed for 8 months.
Patient A is treated with anti-CD cancer cell antibodies. Initial antibody loading dose of 1.3 g antibody preparation is administered as a two hour IV infusion, followed by weekly doses of about 0.6 g administered as a 30 minute infusion of the antibody preparation. Antibody and CDT treatments continue for 6 months.
As a result of combination treatment with CDT diet, statins, anti-CD cancer cell antibodies, and tamoxifen, Patient A's breast cancer regresses.

## CC/C(=C(\c1ccccc1)c1ccc(OCCN(C)C)cc1)c1ccccc1 [tamoxifen]
  regression of breast cancer: no regression
